pEC50: −log10 of the molar value.
assay: Homogeneous Time Resolved Fluorescence Assay: The sGC cellular activator assay is performed in the presence and absence of 50% human serum (HS) using Chinese hamster ovary cells that have been stably transfected to express the human soluble guanylate cyclase alpha 1 and beta 1 subunits (sGC). Cells are preincubated with 40 microM 1H-[1,2,4]oxadiazolo[4,3-a]quinoxalin-1-one (ODQ), an sGC inhibitor, for one h in buffer containing 0.1% bovine serum albumin and 3-isobutyl-1-methylxanthine (IBMX). Concentration response curves are prepared for test compounds in DMSO. An intermediate dilution of the compounds is performed in either buffer containing IBMX or type AB HS containing IBMX. Diluted compounds are added to cells and they are incubated at room temperature for thirty min. cGMP is measured using a CisBio homogeneous time resolved fluorescence kit and the EC50 is calculated for each compound.

| SMILES | pEC50 |
| --- | --- |
| Cc1cccc(-c2csc(N3CC[C@@]4(C(=O)O)C[C@H]4C3)n2)c1OCc1cnc2c(c1)CCN(C1CCOC1)C2 (stereo partly drawn) | 6.34 |
| Cc1cccc(-c2csc(N3CC[C@@]4(C(=O)O)C[C@H]4C3)n2)c1OCc1ccc2c(c1)CCN(C1CCOC1)CC2 (stereo partly drawn) | 7.96 |
| Cc1cc(COc2c(C)cccc2-c2csc(N3CC[C@@]4(C(=O)O)C[C@H]4C3)n2)cc2c1CN(C1COC1)CC2 | 8.70 |
| Cc1cc(COc2c(C)cccc2-c2csc(N3CC[C@@]4(C(=O)O)C[C@H]4C3)n2)cc2c1CN(CC1COCCO1)CC2 (stereo partly drawn) | 7.96 |
| O=C(O)[C@@]12CCN(c3nccc(-c4ccccc4OCc4ccc5c(c4)CCN(C4CCOCC4)C5)n3)C[C@@H]1C2 | 7.49 |
| CO[C@@H]1CN(c2cccc(-c3cccc(C)c3OCc3ccc4c(c3C)CCN(C3CCOCC3)CC4)n2)CC[C@@H]1C(=O)O | 8.22 |
| Cc1cccc(-c2csc(N3CC[C@@]4(C(=O)O)C[C@H]4C3)n2)c1OCc1cnc2c(c1)CCN(C1CCOCC1)C2 | 6.68 |
| Cc1cccc(-c2csc(N3CC[C@@]4(C(=O)O)C[C@H]4C3)n2)c1OCc1ccc2c(c1C)CCN(C1COC1)C2 | 7.77 |
| CO[C@@H]1CN(c2nc(-c3cc(F)cc(C)c3OCc3ccc4c(c3)[C@@H](C)CN(C3CCOCC3)CC4)cs2)CC[C@@H]1C(=O)O | 8.30 |
| Cc1ccc(OCc2ccc3c(c2)CCN(C2COC2)C3)c(-c2csc(N3CC[C@@]4(C(=O)O)C[C@H]4C3)n2)c1 | 7.14 |
| Cc1cccc(-c2csc(N3CC[C@@]4(C(=O)O)C[C@H]4C3)n2)c1OCc1ccc2c(c1C)CCN(C1CCOCC1)C2 | 7.96 |
| Cc1ccc(OCc2ccc3c(c2C)CCN(C2COC2)CC3)c(-c2cccc(N3CC4C[C@]4(C(=O)O)C3)n2)c1 (stereo partly drawn) | 7.30 |
| Cc1cccc(-c2csc(N3CC[C@@]4(C(=O)O)C[C@H]4C3)n2)c1OCc1ccc2c(c1C)CCN(C1COC1)CC2 | 8.22 |
| Cc1cccc(-c2csc(N3CC[C@@]4(C(=O)O)C[C@H]4C3)n2)c1OCc1ccc2c(c1C)CCN(C1CCOCC1)CC2 | 8.70 |
| CO[C@H]1CN(c2nc(-c3cc(C)ccc3OCc3ccc4c(c3C)CCN(C[C@@H]3CCOC3)C4)cs2)CC[C@H]1C(=O)O | 7.77 |
| Cc1cccc(-c2csc(N3CC[C@@]4(C(=O)O)C[C@H]4C3)n2)c1OCc1ccc2c(c1)CCN(C1CCOCC1)CC2 | 8.00 |
| Cc1ccc(OCc2ccc3c(c2C)CCN(C2CCOCC2)C3)c(-c2ccnc(N3CC[C@@]4(C(=O)O)C[C@H]4C3)n2)c1 | 7.92 |
| CO[C@@H]1CN(c2nc(-c3cc(F)cc(C)c3OCc3ccc4c(c3)[C@H](C)CN(C3CCOCC3)CC4)cs2)CC[C@@H]1C(=O)O | 7.96 |
